In US20250382279A1, “COMPOUNDS AND METHODS FOR YAP/TEAD MODULATION AND INDICATIONS THEREFOR” (OPNA BIO SA, priority 2023, published 2025):

Test system: TEAD-dependent transcription
Test: Inhibitor activity against TEAD-dependent transcription in a cell-based reporter assay (MSTO-211H+12XGTIIC luciferase)
Conditions: Homo sapiens; MSTO-211H+12XGTIIC cell line, 24 hours compound incubation, luminescence normalized to cell viability fluorescence; read-out: MSTO-211H GMean IC50 (uM) Cell Assay Reporter Cell Variant: TEAD
Text: Determine Inhibitor Activity Against TEAD-Dependent Transcription in a Cell-Based Reporter Assay
The human mesothelioma cell line MSTO-211H was stably transfected with a pGL4.21 plasmid containing a synthetic promoter with 12 copies of the GTIIC TEAD response element that drives the expression of a luciferase reporter gene^1 using Lipofectamine transfection reagent (Thermno Fisher). Transfected cells were selected using puromycin and single cell clones expressing this construct (referred to as MSTO-211H+12XGTIIC) were generated by limiting dilution. MSTO-211H cells was characterized by genetic alterations in key components of the Hippo pathway^2, resulting in up-regulation of YAP/TEAD-mediated transcription. […] To evaluate TEAD inhibitors, the MSTO-211H+12XGTIIC cell line was seeded in a 96-well plate in 50 μL of culture media at 1×10^4 cells per well and incubated at 37° C. overnight. Serial dilutions of compounds (in total volume of 50 μL of culture media) were added to the cells and incubated at 37° C. for 24 hours. Each plate included cells treated with DMSO as high controls and cells treated with 20 μM of the reference compound K-975 (a known TEAD inhibitor)^3 as low controls. Cell viability was assayed by the addition of 25 μL of CellTiter-Fluor reagent (Promega) followed by a 30-minute incubation at 37° C. and quantification of the fluorescence signal (Ex400/Em505). Subsequently, luciferase expression was assayed by the addition of 25 μL of ONE-Glo reagent (Promega) followed by a 10-minute incubation at room temperature and quantification of the luminescence signal. The luminescence signal was normalized to the fluorescence signal to correct for any loss in cell viability over the 24-hour compound incubation period. The percentage of inhibition of normalized luminescence signal, indicative of compound-mediated inhibition of TEAD-dependent transcription, at individual compound concentrations relative to high and low controls was calculated. The data were analyzed by using nonlinear regression to generate IC50 values for individual compounds.

O=C1c2cccc(Oc3ccc(C(F)(F)F)cc3)c2CCN1c1ccnc([S+]([O-])C(F)(F)F)n1 (stereo not shown) [O-0112, 5-(4-(trifluoromethyl)phenoxy)-2-(2-((trifluoromethyl)sulfinyl)pyrimidin-4-yl)-3,4-dihydroisoquinolin-1(2H)-one]
IC50: 0.001 to 10 µM
